Laboratory results taken from patent US20250236596A1, “HYDROXYLAMINE-BASED EGFR INHIBITORS FOR TREATMENT OF CANCER WITH BRAIN METASTASES” (University of Georgia Research Foundation, Inc., priority 2022, published 2025).

Assays:
Caco-2 cells = test: Caco-2 cell permeability assay; assay type: in vitro ADME; settings: for efflux / permeability: result in words
Experimental: (§1) Compounds were evaluated at Pharmaron Inc. for their ability to permeate Caco-2 cells and MDCKII-MDR1 cells. A 96-well HTS Transwell plate (Corning) was used for the Caco-2 and MDCKII-MDR1 cell seeding. Caco-2 cells were seeded at a density of 6.86×10^5 cells/mL and cultivated for 14-18 days prior to assays. MDCKII-MDR1 cells were seeded at a density of 1.56×10^6 cells/mL and cultivated for 4-8 days prior to assays. To determine the rate of drug transport in both the absorptive (apical to basolateral (A-B)) and secretory (basolateral to apical (B-A)) directions, compounds (5 μM in DMSO for Caco-2 cells, and 1 μM in DMSO for MDCKII-MDR1 cells) were added to the donor wells. Plates were incubated at 37° C. for 2 h and samples (50 μL) were taken at the beginning and end of the incubation in both the donor and acceptor wells with the assay run in duplicate (n=2). Samples were analyzed by LC-MS/MS. The apparent permeability coefficient (Papp) in units (cm/s×10^−6) was calculated using the following equation.
(§2) where, VA represents the volume (mL) in the acceptor well. Area is the surface of the membrane (0.143 cm^2 for Transwell-96 well plate) and time is the total transport time in sec.
(§3) The efflux ratio was determined using the following equation: Efflux ratio=Papp (B-A)/Papp(A-B)
(§4) Where, Papp (B-A) indicates the apparent permeability in the basolateral to apical direction, and Papp (A-B) indicates the apparent permeability in the apical to basolateral direction.

MDCKII-MDR1 cells = test: MDCKII-MDR1 cell permeability assay; assay type: in vitro ADME, canine
Experimental: as §1, §2, §3, §4

[1] = tested on: Salmonella strains (TA98, TA100, TA1537 and TA1535); assay type: cell-based; settings: with and without rat liver S9; 4 Salmonella strains
Experimental: Compounds were assessed for mutagenicity at Eurofins Panlabs. in 384-well plates using four Salmonella strains: TA98, to probe for frameshift mutation (with quercetin as control), TA100 and TA1535, to probe for base pair […] (with streptozotocin as control), and TA1537, to probe for frameshift mutations (with aminoacridine as control) as previously described.^21 Each compound was incubated at 37° C. for 96 h at four different concentrations (5, 10, 50, and 100 μM), with each concentration tested using 48 replicates, both with and without rat liver S9 metabolic activation. A concurrent bacterial cytotoxicity assay was ran at 0.6, 1.2, 2.5, 5, 10, 25, 50 and 100 μM to rule out false negatives. Bacterial cytotoxicity was expressed as percent of control growth (OD650). Compounds with growth of less than 60% control were flagged and considered bacterial cytotoxic. […] Significances of the positive counts between the treatment and control were determined using one-tailed Fisher's exact test.

[2] = target: activating mutant bearing EGFR; test: KINOMEScan KdELECT inhibitor binding constants (Kd); settings: result in words
Experimental: (§5) In vitro kinase activity (inhibitor binding constants (Kd) and biochemical inhibition (IC50's)) were assessed by Eurofins DiscoverX (Kd determinations) and Eurofins Cerep (biochemical IC50 determinations).

[3] = tested on: activating mutant bearing EGFR; test: KinaseProfiler enzymatic radiometric biochemical inhibition (IC50); settings: ATP 10 μM, result in words
Experimental: as §5

| efflux (Caco-2 cells) | permeability (Caco-2 cells) | permeability (MDCKII-MDR1 cells; result in words) | SMILES | efflux (MDCKII-MDR1 cells; result in words) | mutagenicity in AMES fluctuation assay [1] | inhibitor-binding constants (Kd) [2] | enhancement in permeability compared to 1 (Caco-2 cells) | increase in permeability compared to 1 (MDCKII-MDR1 cells) | biochemical inhibition (IC50) [3] |
| --- | --- | --- | --- | --- | --- | --- | --- | --- | --- |
| reduced efflux ratios | remarkably enhanced permeability | excellent permeability | COc1cc2ncnc(Nc3cccc(Cl)c3F)c2cc1OCCON1CCOCC1 [Compound 13, N-(3-chloro-2-fluorophenyl)-7-methoxy-6-(2-(morpholinooxy)ethoxy)quinazolin-4-amine] | low efflux | – | – | – | – | – |
| – | – | – | COc1cc2ncnc(Nc3ccc(F)c(Cl)c3)c2cc1OCCCN1CCOCC1 [Compound 1, Gefitinib, reference compound] | – | neither 1 or 6 were mutagenic | – | – | – | – |
| high efflux | low permeability | – | COc1cc2ncnc(Nc3ccc(F)c(Cl)c3)c2cc1OCCON1CCN(C)CC1 [Compound 14, N-(3-chloro-4-fluorophenyl)-7-methoxy-6-(2-((4-methylpiperazin-1-yl)oxy)ethoxy)quinazolin-4-amine] | – | – | – | – | – | – |

| SMILES | efflux (Caco-2 cells) | permeability (Caco-2 cells) | permeability (MDCKII-MDR1 cells; result in words) | efflux (MDCKII-MDR1 cells; result in words) | mutagenicity in AMES fluctuation assay [1] | inhibitor-binding constants (Kd) [2] | enhancement in permeability compared to 1 (Caco-2 cells) | increase in permeability compared to 1 (MDCKII-MDR1 cells) | biochemical inhibition (IC50) [3] |
| --- | --- | --- | --- | --- | --- | --- | --- | --- | --- |
| COc1cc2ncnc(Nc3ccc(F)c(Cl)c3)c2cc1OCCON1CCOCC1 [Compound 6, N-(3-chloro-4-fluorophenyl)-7-methoxy-6-(2-(morpholinooxy)ethoxy)quinazolin-4-amine] | greatly decreased efflux | – | – | decreased efflux | neither 1 or 6 were mutagenic | single-digit nanomolar | 14 fold | roughly 4 fold | single-digit nanomolar |
